Where a SMILES comes first, the peptide text is derived from it. Where no end group is shown, it is not given here. [ ]: non-standard residue; d: D form. The star is where a group is joined. Palmitoyl = CCCCCCCCCCCCCCCC(=O)*; Aib = CC(C)(N)C(=O)O

The source of these data is patent US20150011466A1, “APJ Receptor Compounds” (priority 2012, published 2015).

One test has as its target T1, APJ receptor (Homo sapiens, UniProt P35414).
T1 construct: expressed in transfected cells; host or cells: Human TRex cells (doxycycline-inducible)
T1 sequence (P35414 1-380): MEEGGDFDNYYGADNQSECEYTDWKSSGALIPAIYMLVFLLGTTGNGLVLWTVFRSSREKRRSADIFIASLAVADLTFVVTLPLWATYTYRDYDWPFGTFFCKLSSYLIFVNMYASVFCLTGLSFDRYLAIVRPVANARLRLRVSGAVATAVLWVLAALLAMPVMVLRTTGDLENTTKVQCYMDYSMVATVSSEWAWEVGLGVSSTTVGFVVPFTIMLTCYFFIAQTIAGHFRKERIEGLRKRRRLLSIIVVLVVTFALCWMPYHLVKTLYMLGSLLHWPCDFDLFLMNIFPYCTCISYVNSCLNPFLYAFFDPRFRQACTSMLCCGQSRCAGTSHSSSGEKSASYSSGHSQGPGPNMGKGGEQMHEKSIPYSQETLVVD
The experiment in a line: HTRF cAMP assay, inhibition of NKH477 stimulated cAMP in Human TRex cells expressing APJ upon doxycycline induction (APJ-hTREX). The class given is cell-based. The note with it: 300 nM. The text has this: HTRF (homogeneous time resolved fluorescence) is a technology developed by Cisbio Bioassays based on TR-FRET (time-resolved fluorescence resonance energy transfer). Cisbio Bioassays has developed a wide selection of HTRF-based assays compatible with whole cells, thereby enabling functional assays to run under more physiological conditions. The IP-One assays are competitive immunoassays using cryptate-labeled anti-IP1 monoclonal antibody and d2-labeled IP1. IP1 is a relatively stable downstream metabolite of IP3, and accumulates in cells following Gq receptor activation.
cAMP kits based on a competitive immunoassay using cryptate-labeled anti-cAMP antibody and d2-labeled cAMP were used to assay the effects of APJ compounds of the present invention. […] Cells are treated with […] doxycycline and seeded in all white 96 well plates @ 40 k/well overnight.
(In general: In TR-FRET formats the signal depends on donor and acceptor labels being close together.)
As to “TVFRSSEkPRSADIFI (TVFRSSE[dK]PRSADIFI; also: Pal-C(O)- tether, place not given here) [Compound 49]”, the “% IA (@ 300 nM)” value is reported as 49%. The same measure, in the same setting: the result for “TVFRSSEkRRSADFFI (TVFRSSE[dK]RRSADFFI; also: Pal-C(O)- tether, place not given here) [Compound 5]” reads 81%.

The same test, now with this note: read-out: % IA (@ 300 nM).
Take `CCCCCCCCCCCCCCCC(=O)N[C@@H](Cc1c[nH]cn1)C(=O)N[C@H](C(=O)N[C@@H](Cc1ccccc1)C(=O)N[C@@H](CCCNC(=N)N)C(=O)N[C@@H](CO)C(=O)N[C@@H](CO)C(=O)N[C@@H](CCC(=O)O)C(=O)N[C@H](CCCCN)C(=O)N[C@@H](CCCNC(=N)N)C(=O)N[C@@H](CCCNC(=N)N)C(=O)N[C@@H](CO)C(=O)N[C@@H](C)C(=O)N[C@@H](CC(=O)O)C(=O)N[C@H](C(=O)N[C@@H](Cc1ccccc1)C(=O)N[C@H](C(N)=O)[C@@H](C)CC)[C@@H](C)CC)C(C)C` [Compound 7] (Palmitoyl-HVFRSSE[dK]RRSADIFI-NH2): the percent intrinsic activity at 0.3 µM stood at 50%.

On to `CCCCCCCCCCCCCCCC(=O)N[C@H](C(=O)N[C@H](C(=O)N[C@@H](Cc1ccccc1)C(=O)N[C@@H](CCCNC(=N)N)C(=O)N[C@@H](CO)C(=O)N1CCC[C@H]1C(=O)N[C@@H](CCC(=O)O)C(=O)N[C@H](CCCCN)C(=O)N[C@@H](CCCNC(=N)N)C(=O)N[C@@H](CCCNC(=N)N)C(=O)N[C@@H](CO)C(=O)N[C@@H](C)C(=O)N[C@@H](CC(=O)O)C(=O)N[C@H](C(=O)N[C@@H](Cc1ccccc1)C(=O)N[C@H](C(N)=O)[C@@H](C)CC)[C@@H](C)CC)C(C)C)[C@@H](C)O` [Compound 46] (Palmitoyl-TVFRSPE[dK]RRSADIFI-NH2), for which the percent intrinsic activity at 0.3 µM was found to be 77%.

With `CCCCCCCCCCCCCCCC(=O)N[C@H](C(=O)N[C@H](C(=O)N[C@@H](Cc1ccccc1)C(=O)N[C@@H](CCCNC(=N)N)C(=O)N[C@@H](CO)C(=O)N[C@@H](CO)C(=O)NCC(=O)N[C@H](CCCCN)C(=O)N[C@@H](CCCNC(=N)N)C(=O)N[C@@H](CCCNC(=N)N)C(=O)N[C@@H](CO)C(=O)N[C@@H](C)C(=O)N[C@@H](CC(=O)O)C(=O)N[C@H](C(=O)N[C@@H](Cc1ccccc1)C(=O)N[C@H](C(N)=O)[C@@H](C)CC)[C@@H](C)CC)C(C)C)[C@@H](C)O` [Compound 74] (Palmitoyl-TVFRSSG[dK]RRSADIFI-NH2), the percent intrinsic activity at 0.3 µM worked out at 61%. Same read-out and setting: the result for `CCCCCCCCCCCCCCCC(=O)N[C@H](C(=O)N[C@H](C(=O)N[C@@H](Cc1ccccc1)C(=O)N[C@@H](CCCNC(=N)N)C(=O)N[C@@H](CO)C(=O)NCC(=O)N[C@@H](CCC(=O)O)C(=O)N[C@H](CCCCN)C(=O)N[C@@H](CCCNC(=N)N)C(=O)N[C@@H](CCCNC(=N)N)C(=O)N[C@@H](CO)C(=O)N[C@@H](C)C(=O)N[C@@H](CC(=O)O)C(=O)N[C@H](C(=O)N[C@@H](Cc1ccccc1)C(=O)N[C@H](C(N)=O)[C@@H](C)CC)[C@@H](C)CC)C(C)C)[C@@H](C)O` [Compound 73] (Palmitoyl-TVFRSGE[dK]RRSADIFI-NH2) reads 67%. Same read-out and setting: the result for `CCCCCCCCCCCCCCCC(=O)N1CCC[C@H]1C(=O)N[C@H](C(=O)N[C@@H](Cc1ccccc1)C(=O)N[C@@H](CCCNC(=N)N)C(=O)N[C@@H](CO)C(=O)N[C@@H](CO)C(=O)N[C@@H](CCC(=O)O)C(=O)N[C@H](CCCCN)C(=O)N[C@@H](CCCNC(=N)N)C(=O)N[C@@H](CCCNC(=N)N)C(=O)N[C@@H](CO)C(=O)N[C@@H](C)C(=O)N[C@@H](CC(=O)O)C(=O)N[C@H](C(=O)N[C@@H](Cc1ccccc1)C(=O)N[C@H](C(N)=O)[C@@H](C)CC)[C@@H](C)CC)C(C)C` [Compound 42] (Palmitoyl-PVFRSSE[dK]RRSADIFI-NH2) reads 83%. With `CCCCCCCCCCCCCCCC(=O)N[C@H](C(=O)N[C@H](C(=O)N[C@@H](Cc1ccccc1)C(=O)N[C@@H](CCCNC(=N)N)C(=O)N[C@@H](CO)C(=O)N[C@@H](CO)C(=O)N[C@@H](Cc1c[nH]cn1)C(=O)N[C@H](CCCCN)C(=O)N[C@@H](CCCNC(=N)N)C(=O)N[C@@H](CCCNC(=N)N)C(=O)N[C@@H](CO)C(=O)N[C@@H](C)C(=O)N[C@@H](CC(=O)O)C(=O)N[C@H](C(=O)N[C@@H](Cc1ccccc1)C(=O)N[C@H](C(N)=O)[C@@H](C)CC)[C@@H](C)CC)C(C)C)[C@@H](C)O` [Compound 12] (Palmitoyl-TVFRSSH[dK]RRSADIFI-NH2), the percent intrinsic activity at 0.3 µM amounted to 73%.

Regarding `CCCCCCCCCCCCCCCC(=O)N[C@H](C(=O)N[C@H](C(=O)N[C@@H](Cc1ccccc1)C(=O)N[C@@H](CCCNC(=N)N)C(=O)N[C@@H](CCC(N)=O)C(=O)N[C@@H](CO)C(=O)N[C@@H](CCC(=O)O)C(=O)N[C@H](CCCCN)C(=O)N[C@@H](CCCNC(=N)N)C(=O)N[C@@H](CCCNC(=N)N)C(=O)N[C@@H](CO)C(=O)N[C@@H](C)C(=O)N[C@@H](CC(=O)O)C(=O)N[C@H](C(=O)N[C@@H](Cc1ccccc1)C(=O)N[C@H](C(N)=O)[C@@H](C)CC)[C@@H](C)CC)C(C)C)[C@@H](C)O` [Compound 23] (Palmitoyl-TVFRQSE[dK]RRSADIFI-NH2), the percent intrinsic activity at 0.3 µM was 55%.

For the compound `CCCCCCCCCCCCCCCC(=O)N[C@H](C(=O)N[C@H](C(=O)N[C@@H](Cc1ccccc1)C(=O)N[C@@H](CCCNC(=N)N)C(=O)N1CCC[C@H]1C(=O)N[C@@H](CO)C(=O)N[C@@H](CCC(=O)O)C(=O)N[C@H](CCCCN)C(=O)N[C@@H](CCCNC(=N)N)C(=O)N[C@@H](CCCNC(=N)N)C(=O)N[C@@H](CO)C(=O)N[C@@H](C)C(=O)N[C@@H](CC(=O)O)C(=O)N[C@H](C(=O)N[C@@H](Cc1ccccc1)C(=O)N[C@H](C(N)=O)[C@@H](C)CC)[C@@H](C)CC)C(C)C)[C@@H](C)O` [Compound 45] (Palmitoyl-TVFRPSE[dK]RRSADIFI-NH2), the percent intrinsic activity at 0.3 µM is 70%.

On to `CCCCCCCCCCCCCCCC(=O)N[C@H](C(=O)N1CCC[C@H]1C(=O)N[C@@H](Cc1ccccc1)C(=O)N[C@@H](CCCNC(=N)N)C(=O)N[C@@H](CO)C(=O)N[C@@H](CO)C(=O)N[C@@H](CCC(=O)O)C(=O)N[C@H](CCCCN)C(=O)N[C@@H](CCCNC(=N)N)C(=O)N[C@@H](CCCNC(=N)N)C(=O)N[C@@H](CO)C(=O)N[C@@H](C)C(=O)N[C@@H](CC(=O)O)C(=O)N[C@H](C(=O)N[C@@H](Cc1ccccc1)C(=O)N[C@H](C(N)=O)[C@@H](C)CC)[C@@H](C)CC)[C@@H](C)O` [Compound 43] (Palmitoyl-TPFRSSE[dK]RRSADIFI-NH2), for which the percent intrinsic activity at 0.3 µM was determined as 39%.

Regarding `CCCCCCCCCCCCCCCC(=O)N[C@H](C(=O)N[C@H](C(=O)N[C@@H](Cc1ccccc1)C(=O)N[C@@H](CCCNC(=N)N)C(=O)N[C@@H](CO)C(=O)N[C@@H](CO)C(=O)N[C@@H](CCC(=O)O)C(=O)N[C@H](CCCCN)C(=O)N[C@@H](Cc1c[nH]cn1)C(=O)N[C@@H](CCCNC(=N)N)C(=O)N[C@@H](CO)C(=O)N[C@@H](C)C(=O)N[C@@H](CC(=O)O)C(=O)N[C@H](C(=O)N[C@@H](Cc1ccccc1)C(=O)N[C@H](C(N)=O)[C@@H](C)CC)[C@@H](C)CC)C(C)C)[C@@H](C)O` [Compound 13] (Palmitoyl-TVFRSSE[dK]HRSADIFI-NH2), the percent intrinsic activity at 0.3 µM is 56%. Still for that read-out and setting: next, `CCCCCCCCCCCCCCCC(=O)N[C@H](C(=O)N[C@H](C(=O)N[C@@H](Cc1ccccc1)C(=O)N[C@@H](CCCNC(=N)N)C(=O)N[C@@H](CO)C(=O)NC(C)(C)C(=O)N[C@@H](CCC(=O)O)C(=O)N[C@H](CCCCN)C(=O)N[C@@H](CCCNC(=N)N)C(=O)N[C@@H](CCCNC(=N)N)C(=O)N[C@@H](CO)C(=O)N[C@@H](C)C(=O)N[C@@H](CC(=O)O)C(=O)N[C@H](C(=O)N[C@@H](Cc1ccccc1)C(=O)N[C@H](C(N)=O)[C@@H](C)CC)[C@@H](C)CC)C(C)C)[C@@H](C)O` [Compound 59] (Palmitoyl-TVFRS[Aib]E[dK]RRSADIFI-NH2): 66%.

Consider `CCCCCCCCCCCCCCCC(=O)N[C@H](C(=O)N[C@@H](CC(=O)O)C(=O)N[C@@H](Cc1ccccc1)C(=O)N[C@@H](CCCNC(=N)N)C(=O)N[C@@H](CO)C(=O)N[C@@H](CO)C(=O)N[C@@H](CCC(=O)O)C(=O)N[C@H](CCCCN)C(=O)N[C@@H](CCCNC(=N)N)C(=O)N[C@@H](CCCNC(=N)N)C(=O)N[C@@H](CO)C(=O)N[C@@H](C)C(=O)N[C@@H](CC(=O)O)C(=O)N[C@H](C(=O)N[C@@H](Cc1ccccc1)C(=O)N[C@H](C(N)=O)[C@@H](C)CC)[C@@H](C)CC)[C@@H](C)O` [Compound 34] (Palmitoyl-TDFRSSE[dK]RRSADIFI-NH2), for which the percent intrinsic activity at 0.3 µM came out at 44%. The same measure, in the same setting: next, `CCCCCCCCCCCCCCCC(=O)N[C@H](C(=O)N[C@H](C(=O)N[C@@H](Cc1ccccc1)C(=O)N[C@@H](CCCNC(=N)N)C(=O)N[C@@H](CO)C(=O)N[C@@H](CO)C(=O)N[C@@H](CCC(N)=O)C(=O)N[C@H](CCCCN)C(=O)N[C@@H](CCCNC(=N)N)C(=O)N[C@@H](CCCNC(=N)N)C(=O)N[C@@H](CO)C(=O)N[C@@H](C)C(=O)N[C@@H](CC(=O)O)C(=O)N[C@H](C(=O)N[C@@H](Cc1ccccc1)C(=O)N[C@H](C(N)=O)[C@@H](C)CC)[C@@H](C)CC)C(C)C)[C@@H](C)O` [Compound 25] (Palmitoyl-TVFRSSQ[dK]RRSADIFI-NH2): 45%.
